Laboratory results as given in patent publication US11560372B2, “Heterocyclic compounds useful as modulators of acetylcholine receptors” (TAKEDA PHARMACEUTICAL COMPANY LIMITED, priority 2017, dated 2023).
pEC50: −log10 of the molar value.

Assays:
[1] = biological target: T1, human M1 receptor (hCHRM1) (Homo sapiens, UniProt P11229); test: Measurement of M1 receptor positive allosteric modulator (M1PAM) activity, calcium fluorescence in CHO-K1 cells; assay type: cell-based; conditions: for activity (%) at 10 μM: 10 μM test compound, 100% = acetylcholine final concentration 1 μM, 0% = DMSO; for pEC50: inflection point of concentration-dependent curve, in the presence of acetylcholine at EC20 concentration (final 0.8-1.0 nM), read-out: IP value
T1 construct: expressed in transfected cells
T1 sequence (P11229 1-460): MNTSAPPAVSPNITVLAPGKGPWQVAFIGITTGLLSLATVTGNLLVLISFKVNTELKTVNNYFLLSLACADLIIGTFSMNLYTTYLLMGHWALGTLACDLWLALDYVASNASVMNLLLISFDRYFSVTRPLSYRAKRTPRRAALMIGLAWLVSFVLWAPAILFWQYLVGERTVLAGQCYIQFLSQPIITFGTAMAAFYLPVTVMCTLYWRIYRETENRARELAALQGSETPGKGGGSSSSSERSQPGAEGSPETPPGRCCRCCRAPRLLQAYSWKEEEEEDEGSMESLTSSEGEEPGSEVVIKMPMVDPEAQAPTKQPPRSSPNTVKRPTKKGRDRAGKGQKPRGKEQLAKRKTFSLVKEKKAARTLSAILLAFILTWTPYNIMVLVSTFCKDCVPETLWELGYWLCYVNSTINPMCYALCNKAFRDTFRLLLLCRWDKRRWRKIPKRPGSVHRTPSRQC
Procedure, shortened: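 CHO-K1 cells stably expressing human M1 loaded with Fluo-4 AM, then given compound plus acetylcholine at EC20 (final 0.8-1.0 nM). Calcium fluorescence read for 1 min; activity normalized to 1 μM acetylcholine (100%) and DMSO (0%), with IP taken as inflection point of concentration curve.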

[2] = tested on: Male ICR mice; test: Mouse defecation experiment; assay type: in vivo; conditions: mean±standard error
Protocol: Mouse Defecation Experiment
Male ICR mice (6-7 weeks old) were used after an acclimation period for about 1 week. A test drug (1 mg/kg or 3 mg/kg) was suspended in 0.5% methylcellulose solution and orally administered at a volume of 10 mL/kg, and the number of feces 2 hr later was counted. Only 0.5% methylcellulose was administered to a solvent administration group.

[3] = Mouse PK test (cassette dosing); assay type: in vivo; conditions: male, ICR; for Tmax: mouse plasma, time to reach maximum plasma concentration, oral 1 mg/kg; for MRT / clearance: plasma, mouse, intravenous 0.1 mg/kg; for MRT: mean residence time; for clearance: total clearance, read-out: CL total (converted)
Protocol: As the mouse, 8-week-old male ICR mice (Japan SLC, Inc.) were used. They were fed on a solid commercially available diet (CE-2, CLEA Japan, Inc.) and allowed to freely ingest tap water as the drinking water. An intravenous administration solution for the mice was prepared by weighing a test compound, dissolving same in dimethylacetamide (DMA) (Wako Pure Chemical Industries, Ltd.), adding the same volume of 1,3-butanediol (Wako Pure Chemical Industries, Ltd.) and mixing by stirring to give a DMA:1,3-butanediol (1:1, v/v) solution. An oral administration solution was prepared by weighing a test compound, pulverizing same in an agate mortar, and gradually adding 0.5 w/v % aqueous methylcellulose solution to give a suspension. For intravenous administration, the solution was administered into femoral vein of the mice at 0.1 mg/mL/kg (salt converted to free form). For oral administration, the suspension was administered to the mice at 1 mg/5 mL/kg (salt converted to free form). The cassette dosing method was used for the both administration routes, and the test compound was administered in the following manner.
In the case of intravenous administration, blood samples were collected from the tail vein at 5, 10, 15, 30 min, 1, 2, 4, 8 hr after administration, an anticoagulation treatment with heparin sodium (Shimizu Pharmaceutical Co., Ltd.) was performed, and plasma was collected after centrifugation and subjected to the measurement of drug concentration. In the case of oral administration, blood samples were collected from the tail vein at 15, 30 min, 1, 2, 4, 8 hr after administration, an anticoagulation treatment with heparin sodium was performed, and plasma was collected after centrifugation and subjected to the measurement of drug concentration.
All drug concentrations were measured by LC-MS/MS analysis. For a pharmacokinetics test, the plasma (5 μL) was placed in a tube, acetonitrile (115 μL) containing internal standard solution was added and they were mixed on a vortex mixer. Thereafter, the mixture was centrifuged (5000 rpm, 5 min, 4° C.). The supernatant (100 μL) after centrifugation was added to 10 mmol/L ammonium formate (100 μL) added earlier and mixed therewith. This sample was injected to LC/MS/MS. […] MS/MS used was AB Sciex TQ5500-MPX (Applied Biosystems).
Tmax: time to reach maximum plasma concentration
iv: intravenous administration
CL total: total clearance

Row | Structure (SMILES) | activity (%) at 10 μM [1] [%] | pEC50 [1] | number of feces 2 hr later ([2]; 1 mg/kg orally) | Tmax [3] [h] | MRT [3] [h] | clearance [3] [mL/min/kg] | number of feces 2 hr later ([2]; 3 mg/kg orally)
1 | COCCNC(=O)c1ccc(Cc2cc3c(=O)n([C@H]4CCOC[C@@H]4O)cnc3c(C)c2C)cc1F [Example 66, 1,5-anhydro-2,3-dideoxy-3-(6-(3-fluoro-4-((2-methoxyethyl)carbamoyl)benzyl)-7,8-dimethyl-4-oxoquinazolin-3(4H)-yl)-L-threo-pentitol] | 106 | 8.74 | 9.3 ± 1.2 | 0.7 | 0.8 | 26.6 | –
2 | CNC(=O)c1ccc(Cc2cc3c(=O)n([C@H]4CCOC[C@@H]4O)cnc3c(C)c2C)cc1F [Example 3, 1,5-anhydro-2,3-dideoxy-3-(6-(3-fluoro-4-(methylcarbamoyl)benzyl)-7,8-dimethyl-4-oxoquinazolin-3(4H)-yl)-L-threo-pentitol] | 103 | 9.00 | 14.0 ± 1.0 | 1.7 | 1.9 | 10.2 | –
3 | Cc1nn(C)cc1-c1ccc(Cc2cc3c(=O)n([C@H]4CCOC[C@@H]4O)cnc3c(C)c2C)cn1 [Example 5, 1,5-anhydro-2,3-dideoxy-3-(6-((6-(1,3-dimethyl-1H-pyrazol-4-yl)pyridin-3-yl)methyl)-7,8-dimethyl-4-oxoquinazolin-3(4H)-yl)-L-threo-pentitol] | 97 | 8.82 | 5.6 ± 1.0 | 0.7 | 1.2 | 7.45 | 8.4 ± 2.6
4 | Cc1c(Cc2ccc(C(=O)NC[C@H]3CCCO3)c(F)c2)cc2c(=O)n([C@H]3CCOC[C@@H]3O)cnc2c1C [Example 81, 1,5-anhydro-2,3-dideoxy-3-(6-(3-fluoro-4-(((2R)-tetrahydrofuran-2-ylmethyl)carbamoyl)benzyl)-7,8-dimethyl-4-oxoquinazolin-3(4H)-yl)-L-threo-pentitol] | 110 | 8.43 | – | 0.5 | 0.5 | 72.2 | –
5 | Cc1c(Cc2ccc(-c3cnn(C)c3)nc2)cc2c(=O)n([C@H]3CCOC[C@@H]3O)cnc2c1C [Example 6, 1,5-anhydro-2,3-dideoxy-3-(7,8-dimethyl-6-((6-(1-methyl-1H-pyrazol-4-yl)pyridin-3-yl)methyl)-4-oxoquinazolin-3(4H)-yl)-L-threo-pentitol] | 99 | 9.02 | 7.2 ± 1.8 | 1.7 | 1.4 | 4.55 | 8.2 ± 1.0
6 | CNC(=O)c1ccc(Cc2cc3c(=O)n([C@H]4CCOC[C@@H]4O)nnc3c(Cl)c2C)cc1F [Example 19, 1,5-anhydro-3-(8-chloro-6-(3-fluoro-4-(methylcarbamoyl)benzyl)-7-methyl-4-oxo-1,2,3-benzotriazin-3(4H)-yl)-2,3-dideoxy-L-threo-pentitol] | 103 | 8.80 | 12.6 ± 1.2 | 1.7 | 2.5 | 4.57 | –
7 | Cc1c(Cc2ccc(-c3cn(C)nn3)nc2)cc2c(=O)n([C@H]3CCOC[C@@H]3O)cnc2c1C [Example 2, 1,5-anhydro-2,3-dideoxy-3-(7,8-dimethyl-6-((6-(1-methyl-1H-1,2,3-triazol-4-yl)pyridin-3-yl)methyl)-4-oxoquinazolin-3(4H)-yl)-L-threo-pentitol] | 104 | 8.82 | 5.0 ± 0.7 | 1 | 1 | 10.9 | 11.3 ± 0.6
